Measurements: patent publication US20230072683A1, “PYRIDO-PYRIMIDIN DERIVATIVES AND PHARMACEUTICAL COMPOSITION, FOR USE IN PREVENTING OR TREATING PI3 KINASE RELATED DISEASES, COMPRISING SAME AS ACTIVE INGREDIENT” (BORYUNG PHARMACEUTICAL CO., LTD, priority 2019, published 2023)
Read-outs that look alike come from different tables or passages of the source.

Legend:
[1] = biological target: PI3K-δ (PI3K(p1108/p857) (h)) (Homo sapiens, UniProt O00329); test: Evaluation of inhibitory activity against PI3K-δ (HTRF kinase assay); assay type: biochemical; conditions: for inhibition at 0.1 µM: read-out: EXP_VALUE(% Inhibition) PI3K-δ 0.1 μM; for inhibition at 0.01 µM: compound concentration 0.01 μM, read-out: EXP_VALUE(% Inhibition) PI3K-δ 0.01 μM
Sequence of PI3K-δ (PI3K(p1108/p857) (h)) (O00329 whole entry, the tested form may be a part): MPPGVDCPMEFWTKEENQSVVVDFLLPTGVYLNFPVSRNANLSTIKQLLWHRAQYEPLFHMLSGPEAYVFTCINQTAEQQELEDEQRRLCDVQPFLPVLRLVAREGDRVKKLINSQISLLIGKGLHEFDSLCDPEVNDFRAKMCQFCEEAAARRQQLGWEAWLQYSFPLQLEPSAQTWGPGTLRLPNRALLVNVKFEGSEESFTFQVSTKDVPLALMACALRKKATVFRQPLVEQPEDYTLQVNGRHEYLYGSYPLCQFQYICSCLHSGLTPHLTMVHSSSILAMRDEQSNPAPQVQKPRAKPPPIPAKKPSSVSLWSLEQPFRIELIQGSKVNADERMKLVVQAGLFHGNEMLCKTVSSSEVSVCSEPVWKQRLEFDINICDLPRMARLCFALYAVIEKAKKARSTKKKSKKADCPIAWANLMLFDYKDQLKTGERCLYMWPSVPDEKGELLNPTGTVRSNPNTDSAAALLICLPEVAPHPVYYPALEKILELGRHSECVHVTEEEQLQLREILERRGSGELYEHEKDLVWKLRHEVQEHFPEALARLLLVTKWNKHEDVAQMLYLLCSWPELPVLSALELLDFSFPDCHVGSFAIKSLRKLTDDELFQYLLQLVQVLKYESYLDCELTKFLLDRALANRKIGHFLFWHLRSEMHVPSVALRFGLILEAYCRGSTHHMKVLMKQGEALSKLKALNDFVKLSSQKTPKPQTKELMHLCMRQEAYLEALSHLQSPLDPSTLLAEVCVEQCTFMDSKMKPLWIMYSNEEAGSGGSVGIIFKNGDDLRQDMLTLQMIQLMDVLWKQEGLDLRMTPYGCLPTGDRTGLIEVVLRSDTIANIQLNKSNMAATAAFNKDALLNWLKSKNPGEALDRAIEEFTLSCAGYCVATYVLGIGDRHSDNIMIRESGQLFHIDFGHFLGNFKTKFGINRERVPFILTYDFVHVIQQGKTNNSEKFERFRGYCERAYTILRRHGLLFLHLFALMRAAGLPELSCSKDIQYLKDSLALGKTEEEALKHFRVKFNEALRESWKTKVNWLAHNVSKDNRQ
Sequence of PI3K-δ (PI3K(p1108/p857) (h)) (P27986 whole entry partner, the tested form may be a part): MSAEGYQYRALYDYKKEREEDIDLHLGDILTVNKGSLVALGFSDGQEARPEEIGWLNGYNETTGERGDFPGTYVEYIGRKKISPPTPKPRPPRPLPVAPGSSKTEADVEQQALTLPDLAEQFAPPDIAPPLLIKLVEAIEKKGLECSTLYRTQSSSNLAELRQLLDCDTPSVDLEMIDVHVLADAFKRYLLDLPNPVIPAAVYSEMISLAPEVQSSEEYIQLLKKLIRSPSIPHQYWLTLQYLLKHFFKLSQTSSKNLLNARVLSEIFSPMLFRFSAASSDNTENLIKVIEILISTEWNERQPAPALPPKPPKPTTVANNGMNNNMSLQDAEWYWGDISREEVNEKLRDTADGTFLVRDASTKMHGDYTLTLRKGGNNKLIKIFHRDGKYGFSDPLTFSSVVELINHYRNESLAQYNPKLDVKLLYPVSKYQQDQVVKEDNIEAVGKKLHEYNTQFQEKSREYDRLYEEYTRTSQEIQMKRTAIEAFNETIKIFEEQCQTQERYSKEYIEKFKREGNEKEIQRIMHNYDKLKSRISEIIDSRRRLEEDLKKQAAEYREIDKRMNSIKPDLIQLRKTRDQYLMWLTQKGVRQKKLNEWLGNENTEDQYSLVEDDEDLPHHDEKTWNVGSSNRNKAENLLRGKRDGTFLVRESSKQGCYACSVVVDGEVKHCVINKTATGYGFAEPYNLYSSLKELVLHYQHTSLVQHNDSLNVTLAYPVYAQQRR
In short: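 HTRF read-out (665/620 nm ratio ×10000) used Eu-labelled anti-GST, GST-tagged GRP1 PH domain and streptavidin-allophycocyanin after EDTA/PIP3 stop.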

DNA-PK(h) = DNA-PK(h) (Homo sapiens, UniProt P78527); test: Evaluation of inhibitory activity against DNA-PK (HTRF kinase assay, GST-cMyc-p53 substrate); assay type: biochemical; conditions: for inhibition at 0.1 µM: read-out: EXP_VALUE(% Inhibition) DNA-PK(h) 0.1 μM; for inhibition at 0.01 µM: compound concentration 0.01 μM, read-out: EXP_VALUE(% Inhibition) DNA-PK(h) 0.01 μM
In short: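 p53 Ser15 phosphorylation by human DNA-PK was measured by time-resolved FRET ratio (665/620 nm ×10000) using Eu-labelled anti-phospho-Ser15 and d2 anti-GST antibodies. Substrate GST-cMyc-p53 at 50 μM; Mg/ATP-initiated, 30 min at room temperature, EDTA stop.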

inhibition at 0.1 µM ([1]; compound at 0.1 μM) | inhibition at 0.1 µM (DNA-PK(h); compound at 0.1 μM) | inhibition at 0.01 µM [1] | inhibition at 0.1 µM ([1]; compound concentration 0.1 μM) | inhibition at 0.01 µM (DNA-PK(h)) | inhibition at 0.1 µM (DNA-PK(h); compound concentration 0.1 μM) | Compound
98% | 22% |  |  |  |  | C[C@H](Nc1ncnc2[nH]ccc(=O)c12)c1c(Cl)c2cccc(S(=O)(=O)c3ccncc3)c2c(=O)n1-c1ccccc1 [Example 391, (S)-4-((1-(4-chloro-1-oxo-2-phenyl-8-(pyridin-4-ylsulfonyl)-1,2-dihydroisoquinolin-3-yl)ethyl)amino)pyrido[2,3-d]pyrimidin-5(8H)-one]
 |  | 101% | 109% | 53% | 99% | C[C@H](Nc1ncnc2[nH]ccc(=O)c12)c1c(Cl)c2cccc(-c3cccnc3)c2c(=O)n1-c1ccccc1 [Example 4, (S)-4-((1-(4-chloro-1-oxo-2-phenyl-8-(pyridin-3-yl)-1,2-dihydroisoquinolin-3-yl)ethyl)amino)pyrido[2,3-d]pyrimidin-5(8H)-one]
 |  | 89% |  | 76% |  | C[C@H](Nc1ncnc2[nH]ccc(=O)c12)c1c(Cl)c2cccc(-c3ccc4ncnn4c3)c2c(=O)n1-c1ccccc1 [Example 42, (S)-4-((1-(8-([1,2,4]triazolo[1,5-a]pyridin-6-yl)-4-chloro-1-oxo-2-phenyl-1,2-dihydroisoquinolin-3-yl)ethyl)amino)pyrido[2,3-d]pyrimidin-5(8H)-one]
 |  | 110% | 101% | 90% | 106% | C[C@H](Nc1ncnc2[nH]ccc(=O)c12)c1c(Cl)c2cccc(-c3ccc(C(N)=O)cc3)c2c(=O)n1-c1ccccc1 [Example 80, (S)-4-(4-chloro-1-oxo-3-(1-((5-oxo-5,8-dihydropyrido[2,3-d]pyrimidin-4-yl)amino)ethyl)-2-phenyl-1,2-dihydroisoquinolin-8-yl)benzamide]
 |  | 25% |  | 10% |  | C[C@H](Nc1ncnc2[nH]ccc(=O)c12)c1c(Cl)c2cccc(C(=O)NC(C)(C)CO)c2c(=O)n1-c1ccccc1 [Example 284, (S)-4-chloro-N-(1-hydroxy-2-methylpropan-2-yl)-1-oxo-3-(1-((5-oxo-5,8-dihydropyrido[2,3-d]pyrimidin-4-yl)amino)ethyl)-2-phenyl-1,2-dihydroisoquinoline-8-carboxamide]
 |  | 20.2% | 55% | 47.2% | 84.6% | C[C@H](Nc1ncnc2[nH]ccc(=O)c12)c1c(Cl)c2cccc(C#Cc3cncs3)c2c(=O)n1-c1ccccc1 [Example 313, (S)-4-((1-(4-chloro-1-oxo-2-phenyl-8-(thiazol-5-ylethynyl)-1,2-dihydroisoquinolin-3-yl)ethyl)amino)pyrido[2,3-d]pyrimidin-5(8H)-one]
 |  | 95% |  | 87% |  | Cc1cc(-c2cccc3c(Cl)c([C@H](C)Nc4ncnc5[nH]ccc(=O)c45)n(-c4ccccc4)c(=O)c23)cnc1O [Example 58, (S)-4-((1-(4-chloro-8-(6-hydroxy-5-methylpyridin-3-yl)-1-oxo-2-phenyl-1,2-dihydroisoquinolin-3-yl)ethyl)amino)pyrido[2,3-d]pyrimidin-5(8H)-one]
 |  | 42% | 88% | 33% | 78% | C[C@H](Nc1ncnc2[nH]ccc(=O)c12)c1c(Cl)c2cccc(-c3ccc(N4CCCCC4)cc3)c2c(=O)n1-c1ccccc1 [Example 88, (S)-4-((1-(4-chloro-1-oxo-2-phenyl-8-(4-(piperidin-1-yl)phenyl)-1,2-dihydroisoquinolin-3-yl)ethyl)amino)pyrido[2,3-d]pyrimidin-5(8H)-one]
1% | 29% |  |  |  |  | C[C@H](Nc1ncnc2[nH]ccc(=O)c12)c1c(Cl)c2cccc(SC3COC3)c2c(=O)n1-c1ccccc1 [Example 418, (S)-4-((1-(4-chloro-8-(oxetan-3-ylthio)-1-oxo-2-phenyl-1,2-dihydroisoquinolin-3-yl)ethyl)amino)pyrido[2,3-d]pyrimidin-5(8H)-one]
 |  | 96% |  | 53% |  | C[C@H](Nc1ncnc2[nH]ccc(=O)c12)c1c(Cl)c2cccc(-c3cc(O)ncn3)c2c(=O)n1-c1ccccc1 [Example 50, (S)-4-((1-(4-chloro-8-(6-hydroxypyrimidin-4-yl)-1-oxo-2-phenyl-1,2-dihydroisoquinolin-3-yl)ethyl)amino)pyrido[2,3-d]pyrimidin-5(8H)-one]
87% | 64% |  |  |  |  | C[C@H](Nc1ncnc2[nH]ccc(=O)c12)c1c(Cl)c2cccc(-c3cnc(C4(O)CCC4)nc3)c2c(=O)n1-c1ccccc1 [Example 438, (S)-4-((1-(4-chloro-8-(2-(1-hydroxycyclobutyl)pyrimidin-5-yl)-1-oxo-2-phenyl-1,2-dihydroisoquinolin-3-yl)ethyl)amino)pyrido[2,3-d]pyrimidin-5(8H)-one]
86% | 13% |  |  |  |  | C[C@H](Nc1ncnc2[nH]ccc(=O)c12)c1c(Cl)c2cccc(Oc3ccncc3)c2c(=O)n1-c1ccccc1 [Example 428, (S)-4-((1-(4-chloro-1-oxo-2-phenyl-8-(pyridin-4-yloxy)-1,2-dihydroisoquinolin-3-yl)ethyl)amino)pyrido[2,3-d]pyrimidin-5(8H)-one]
 |  | 46% | 79% | 13% | 45% | C[C@H](Nc1ncnc2[nH]ccc(=O)c12)c1c(Cl)c2cccc(-c3ccc(-c4cccs4)cc3)c2c(=O)n1-c1ccccc1 [Example 93, (S)-4-((1-(4-chloro-1-oxo-2-phenyl-8-(4-(thiophen-2-yl)phenyl)-1,2-dihydroisoquinolin-3-yl)ethyl)amino)pyrido[2,3-d]pyrimidin-5(8H)-one]
 |  | 72% | 86% | 53% | 92% | C[C@H](Nc1ncnc2[nH]ccc(=O)c12)c1c(Cl)c2cccc(-c3ccc4[nH]ccc4c3)c2c(=O)n1-c1ccccc1 [Example 73, (S)-4-((1-(4-chloro-8-(1H-indol-5-yl)-1-oxo-2-phenyl-1,2-dihydroisoquinolin-3-yl)ethyl)amino)pyrido[2,3-d]pyrimidin-5(8H)-one]
 |  | 43% | 91% | 21% | 67% | C[C@H](Nc1ncnc2[nH]ccc(=O)c12)c1c(Cl)c2cccc(N3Cc4ccccc4C3)c2c(=O)n1-c1ccccc1 [Example 340, (S)-4-((1-(4-chloro-8-(isoindolin-2-yl)-1-oxo-2-phenyl-1,2-dihydroisoquinolin-3-yl)ethyl)amino)pyrido[2,3-d]pyrimidin-5(8H)-one]
 |  | 10.2% | 29.9% | -1.2% | 23.6% | C[C@H](Nc1ncnc2[nH]ccc(=O)c12)c1c(Cl)c2cccc(/C=C/c3ccccc3)c2c(=O)n1-c1ccccc1 [Example 70, (S,E)-4-((1-(4-chloro-1-oxo-2-phenyl-8-styryl-1,2-dihydroisoquinolin-3-yl)ethyl)amino)pyrido[2,3-d]pyrimidin-5(8H)-one]
 |  | 91% | 97% | 63% | 92% | C[C@H](Nc1ncnc2[nH]ccc(=O)c12)c1c(Cl)c2cccc(-c3ccc(-c4nnc(N)s4)cc3)c2c(=O)n1-c1ccccc1 [Example 92, (S)-4-((1-(8-(4-(5-amino-1,3,4-thiadiazol-2-yl)phenyl)-4-chloro-1-oxo-2-phenyl-1,2-dihydroisoquinolin-3-yl)ethyl)amino)pyrido[2,3-d]pyrimidin-5(8H)-one]
 |  | 86% |  | 91% |  | C[C@H](Nc1ncnc2[nH]ccc(=O)c12)c1c(Cl)c2cccc(-c3ccc(N4CCN(C)CC4)cc3)c2c(=O)n1-c1ccccc1 [Example 179, (S)-4-((1-(4-chloro-8-(4-(4-methylpiperazin-1-yl)phenyl)-1-oxo-2-phenyl-1,2-dihydroisoquinolin-3-yl)ethyl)amino)pyrido[2,3-d]pyrimidin-5(8H)-one]
89% | 18% |  |  |  |  | C[C@H](Nc1ncnc2[nH]ccc(=O)c12)c1c(Cl)c2cccc(S(C)(=O)=O)c2c(=O)n1-c1ccccc1 [Example 390, (S)-4-((1-(4-chloro-8-(methylsulfonyl)-1-oxo-2-phenyl-1,2-dihydroisoquinolin-3-yl)ethyl)amino)pyrido[2,3-d]pyrimidin-5(8H)-one]
 |  | 79% |  | 45% |  | COc1ncc(-c2cccc3c(Cl)c([C@H](C)Nc4ncnc5[nH]ccc(=O)c45)n(-c4ccccc4)c(=O)c23)cc1Cl [Example 187, (S)-4-((1-(4-chloro-8-(5-chloro-6-methoxypyridin-3-yl)-1-oxo-2-phenyl-1,2-dihydroisoquinolin-3-yl)ethyl)amino)pyrido[2,3-d]pyrimidin-5(8H)-one]
 |  | 96% |  | 91% |  | C[C@H](Nc1ncnc2[nH]ccc(=O)c12)c1c(Cl)c2cccc(-c3ccc(S(C)(=O)=O)cc3)c2c(=O)n1-c1ccccc1 [Example 165, (S)-4-((1-(4-chloro-8-(4-(methylsulfonyl)phenyl)-1-oxo-2-phenyl-1,2-dihydroisoquinolin-3-yl)ethyl)amino)pyrido[2,3-d]pyrimidin-5(8H)-one]
